Source: patent publication US7989005B2, “Corosolic acid formulation and its application for weight-loss management and blood sugar balance” (Soft Gel Technologies, Inc., priority 2000, dated 2011)

Experiments:
[1] = test system: Ehrlich Ascites tumor cells; conditions: in-vitro; cited from earlier work
[2] = Acute toxicity studies in rats, single oral limit-dose; type: in vivo; conditions: single oral limit-dose of 5 g/Kg
From the text: The Journal of the Philippine Medical Association, 22, #7, 395402, 1940; Garcia, F. Distribution and Deterioration of Insulin-like Principle in Lagerstroemia Speciosa (Banaba). Acta Medica Philippina, 99-104; Garcia, F., and Melencio-Maglalang, P. Application of Banabins (A Plantisul Preparation) and S. B. Menus to Diabetics. The Journal of the Philippine Medical Association, 33, #1, 7-16, 1957; Garcia, F. Criticisms and Answers on Published Articles concerning Banabins or Plantisul Tablets. The Journal of the Philippine Medical Association, 35, #5, 313-319, 1959; Garcia, L., Pojas, F., Castro, I., Venzon, E., Sisson, F. and Capal, T. Pharmaceutico-chemical and Pharmacological Studies on a Crude Drug from Lagerstroemia Speciosa. The Philippine Journal of Science, 116, #4, 361-375, 1987; Scalori V et al., Int. J. Tiss. Reac., 1983, X 2, 95-97).

SMILES: C[C@H]1[C@H](C)CC[C@]2(C(=O)O)CC[C@]3(C)C(=CC[C@@H]4[C@@]5(C)C[C@@H](O)[C@H](O)C(C)(C)[C@@H]5CC[C@]43C)[C@H]12 [Corosolic acid, 2-a-hydroxyursolic acid]
- cellular uptake of glucose [1]: improves the cellular uptake of glucose
- acute toxicity [2]: safe and non-toxic
